Values joined by “and” are separate entries in the source; they are usually repeats but may differ in a detail not shown here. Equal values may be shown once. Read-outs that look alike come from different tables or passages of the source.
Experiments:
[1] = biological target: T1, porcine pancreas elastase (Sus scrofa, UniProt P00772); experiment: In vitro elastase inhibition with AAAPVN substrate; type: biochemical; conditions: read-out: elastase inhibitory IC50
T1 construct: purchased Sigma-Aldrich; host or cells: porcine pancreas
Protocol: The in vitro inhibitory effects of SPs and their glycosides on elastase activity (known as anti-wrinkle bioactivities) were assessed using porcine pancreas elastase (Sigma-Aldrich). Its synthetic substrate AAAPVN (Sigma-Aldrich) was dissolved in phosphate buffer (pH 8.0, 200 mM). In each well of a 96-well microplate, the above elastase (20 μL) was mixed with the SPs and their glycosides in the phosphate buffer (150 μL) and then pre-incubated at 25 °C for 15 min prior to substrate AAAPVN (30 μL) supplementation.

[2] = biological target: T2, tyrosinase (mushroom origin) (Agaricus bisporus, UniProt C7FF04); experiment: In vitro tyrosinase inhibition with L-tyrosine as substrate; type: biochemical; conditions: for IC50: mushroom tyrosinase, L-tyrosine substrate, read-out: tyrosinase inhibitory IC50; for fold higher tyrosinase inhibitory effect than kojic acid: ratio of IC50 values vs kojic acid
T2 construct: purchased Sigma-Aldrich
Protocol: The in vitro inhibitory effects of SPs and their glycosides towards tyrosinase (Sigma-Aldrich; mushroom origin; 2000 Unit/mL) activities were determined using L-tyrosine as a substrate. Briefly, the reaction mixtures, comprising 100 μL phosphate buffer (pH 6.8, 100 mM), 20 μL of tyrosinase (250 U/mL) and 20 μL of varying concentrations of SPs and their glycosides (in DMSO), were preincubated at 30 °C for 10 min.

[3] = test system: intracellular ROS in TBHP-induced B16F10 cells; experiment: DCFDA cellular ROS detection assay in TBHP-induced B16F10 cells; type: cell-based, murine; conditions: 5.0, 10 and 20 μM tested
Protocol: The intracellular reactive oxygen species (ROS) level was quantitatively determined using the dichlorofluorescin diacetate (DCFDA) cellular ROS detection assay kit (ab113851, Abcam, Cambridge, UK), according to the manufacturer’s instructions. Briefly, B16F10 cells were seeded in a 24-well plate at a density of 2 × 10^3 cells/well. The cells were washed three times using PBS and subjected to staining with 20 μM DCFDA in PBS for 20 min at 37 °C under dark conditions. After staining, the cells were washed with PBS again and incubated with 50 μM TBHP solution (Sigma-Aldrich, St. Louis, MO, USA). Cells were treated time-dependently (10, 30 min and 1 h) with the indicated concentrations of SPs and their glycosides in 0.1% bovine serum albumin containing culture media after DCFDA incubation. The ROS level was analyzed by a fluorescence microplate reader (SpectraMax Gemini XPS/EM, Molecular Devices, Sunnyvale, CA, USA) set at an excitation wavelength of 485 nm and an emission wavelength of 545 nm. Relative fluorescence intensity of controls was equated to 100%, with treatment conditions estimated proportionally.
The in vitro antioxidant activity of SP aglycones and their corresponding glycosides was evaluated through their DPPH-driven radical scavenging abilities in comparison with a well-known antioxidant, L-ascorbic acid. […] Although the mean IC50 values of HPP2G and HPP2DG appear to be a little lower than those of HPP3G and HPP3DG, respectively, there was, however, no statistically significant difference found within (also between) these glycoside groups. Next, we implemented a DCFDA cell-based ROS detection assay to determine whether the SP aglycones and their glycoside analogs function in vivo as antioxidants against intracellular ROS synthesis in the above-described B16F10 cells or not. The TBHP-induced cells were further incubated with different concentrations (5.0, 10 and 20 μM) of SPs and their glycosides for varied time periods (10, 30 min and 1 h).

[4] = DPPH free radical scavenging assay (in vitro antioxidant activity); conditions: 100 μM DPPH, 30 °C, 15 min
Protocol: DPPH (1,1-diphenyl-2-picryl-hydrazyl-hydrate) free radical scavenging assay was employed for determining the in vitro antioxidant activity of SP aglycones and their generated glycosides; L-ascorbic acid was utilized as a positive control whereas DMSO only was used as negative control. The antioxidant activities were expressed as IC50 value (as the concentration of an antioxidant at which 50% of inhibition of free radicals). In brief, 1.9 mL of the 100 μM DPPH reagent (in MeOH) was added into 0.1 mL of each sample diluted within 0.1 to 2 mM range (0.1, 0.2, 0.5, 1.0 and 2.0 mM dissolved in DMSO). After being mixed well by shaking for 5 s, the mixtures were then incubated at 30 °C for 15 min, followed by measuring absorbance with a microplate reader at 515 nm.

[5] = test system: melanin biosynthesis in B16F10 murine melanoma cells; experiment: Inhibition of α-MSH-induced cellular melanin biosynthesis in B16F10 cells; type: cell-based; conditions: fixed 20 μM treatments, 48 h, 2 μM α-MSH
Protocol: The inhibitory effects of SPs and their glycosides towards cellular melanin biosynthesis were examined using the above-described B16F10 murine melanoma cells. After 24 h seed cultivation in a 24-well plate, these cells were treated with the indicated concentrations of SPs and their glycosides for a further 48 h in the presence of 2 μM α-melanocyte stimulating hormone (α-MSH, Sigma-Aldrich). After washing twice with chilled Dulbecco’s PBS supplemented with calcium chloride and magnesium chloride, the resulting cells were treated with trypsin-EDTA solution (Sigma-Aldrich) to recover melanoma cells. After centrifugation at 1000× […] for 3 min, the cell pellet recovered was dissolved in 100 μL of 1 M NaOH solution (containing 10% DMSO) at 55 °C for 1 h. The melanin content was determined by the absorbance at 405 nm using a microplate reader according to the calibration curve obtained from melanin (Sigma-Aldrich) standards, and melanin synthesis inhibitory activities were expressed as the percentage inhibition of cellular melanin synthesis in the above assay; α-arbutin was used as positive control, while DMSO only was used as negative control.

[6] = test system: recombinant StSPGT glycosyltransferase; experiment: Michaelis-Menten kinetics of recombinant StSPGT glycosyl transfer; type: biochemical, Streptomyces tenjimariensis ATCC 31603
Excerpt: (§1) To learn more details about the enzymatic function of a recombinant StSPGT, we investigated and determined its bio-catalytic properties using two nucleotide sugars as the glycosyl donor substrates; the production velocities of the corresponding glycosides were plotted against the varied glycosyl donor concentrations, […] with fixed acceptor concentrations. […]
(§2) the pGEM T-Easy vector (Promega, Madison, WI, USA) and transformed into E. coli XL1-Blue strain (Stratagene, La Jolla, CA, USA). The resultant plasmid obtained from was sequenced; the amplified ORF of interest (annotated as StSPGT) was deposited as GenBank Accession No.
The NdeI/XhoI-digested fragment excised from the aforementioned pGEM T-Easy vector was cloned into the same sites of the expression vector pET-28a(+) (Novagen, San Diego, CA, USA) and expressed as an N-terminal fusion protein with an His6 tag in E. coli BL21(DE3) strain (selected with […] kanamycin). After induction using 0.5 mM IPTG (Sigma-Aldrich) followed by an overnight incubation at 22°C, the cells were harvested and then disrupted by ultrasonication. The His6-tagged protein from the lysate was purified with TALON-metal affinity resin (Clontech, Mountain View, CA, USA) equilibrated with 50 mM phosphate buffer (0.3 M NaCl, 20 mM imidazole) and incubated at 4°C for 1 hr. After 5 min of refrigerated centrifuge at 2000 rpm, the resin was introduced into a disposable column and washed with phosphate buffer containing 20 mM imidazole, equivalent to 8 times the amount of the resin. Finally, recombinant […]
imidazole . The protein concentration was determined according to the Bradford method and the purified StSPGT was stored at −20°C prior to enzymatic reactions.
In vitro Enzymatic GT Reactions and Its Kinetic Studies
After dissolving two SP acceptor substrates, including HPP2 and HPP3, in methanol at 100 mM, we diluted them with a reaction buffer solution (50 mM phosphate buffer, 10 mM magnesium chloride and 1 mg/mL bovine serum albumin; pH 7.4) to the final concentration of 1 mM. Then we added 30 μM StSPGT glycosyltransferase along with four different nucleotide-activated glycosyl […]
GT reaction at 30°C for 30 min. After reaction, an equal volume of ethyl acetate was immediately added to quench the reaction. The organic solvent layer was evaporated to dryness at 40°C by […]
vacuum centrifugation (EYELA, Tokyo, Japan), and finally reconstituted in methanol prior to HPLC-tandem mass spectrometric (MS/MS) analysis.
For the determination of the kinetic parameters for each SP acceptor substrate, the concentration of glycosyl donor was fixed at 2 mM, while the concentration of SP was varied from […]

[7] = parameters: method as in PMID 35453457; conditions: read-out: DPPH radical scavenging IC50; cited from earlier work
[8] = test system: T3, StSPGT; experiment: Michaelis-Menten kinetics of glycosyl transfer by HPLC-MS/MS product quantitation, donor varied 0.1-1.2 mM at fixed 1.0 mM acceptor HPP3, 50 mM phosphate pH 7.4, 10 mM MgCl2, 30 °C.; type: biochemical; conditions: SD, n = 3
T3 construct: recombinant, N-terminal His6 tag, pET-28a(+), expressed in E. coli BL21(DE3)
Excerpt: as §1, §2
(§3) The NdeI/XhoI-digested fragment excised from the aforementioned pGEM T-Easy vector was cloned into the same sites of the expression vector pET-28a(+) (Novagen, San Diego, CA, USA) and expressed as an N-terminal fusion protein with an His6 tag in E. coli BL21(DE3) strain (selected with […] kanamycin). After induction using 0.5 mM IPTG (Sigma-Aldrich) followed by an overnight incubation at 22°C, the cells were harvested and then disrupted by ultrasonication. […]
(§4) imidazole . The protein concentration was determined according to the Bradford method and the purified StSPGT was stored at −20°C prior to enzymatic reactions. […]

[9] = test system: T3, StSPGT; experiment: Michaelis-Menten kinetics of glycosyl transfer by HPLC-MS/MS product quantitation, donor varied 0.1-1.2 mM at fixed 1.0 mM acceptor HPP2, 50 mM phosphate pH 7.4, 10 mM MgCl2, 30 °C.; type: biochemical; conditions: SD, n = 3
Excerpt: as §1, §2, §3, §4

[10] = test system: B16F10 murine melanoma cells; experiment: MTT cytotoxicity assay on B16F10 cells; type: cell-based; conditions: 48 h treatment, highest 20 mM concentration
Protocol: The cytotoxic effects of SP aglycones and their glycosides on B16F10 cells was determined using a conventional MTT assay. B16F10 murine melanoma cells were routinely maintained in Dulbecco’s modified Eagle’s medium (DMEM) (Gibco, New York, NY, USA) supplemented with 10% heat-inactivated fetal bovine serum (Gibco), 100 units/mL penicillin and 100 μg/mL streptomycin (Gibco) at 37 °C under humidified 5% CO2 atmosphere. For the assay, these B16F10 cells were seeded in advance in 24-well plastic tissue culture plates at a density of 2 × 10^3 cells/well. After 24 h cultivation, the cells within individual wells were treated with the indicated concentrations of SPs and their glycosides for 48 h. The cells were incubated with MTT solution for additional 4 h in the dark, and the reduced formazan crystals were then dissolved in DMSO; the DMSO percentage in the media was kept below 0.5%. The resulting mixture was transferred to a 96-well microplate, and then the absorbance was measured at 570 nm using a SpectraMax microplate reader (Molecular Devices, Sunnyvale, CA, USA).
[…]. The treatment concentrations of SP aglycones and their glycosides for the bioassays were selected in advance by monitoring their cytotoxicity against the B16F10 murine melanoma cell line using α-arbutin as the reference. […]

[11] = test system: B16F10 murine melanoma cells; parameters: method as in PMID 28467382; conditions: concentrations less than 5.0 mM; cited from earlier work

T1 sequence (P00772 27-266): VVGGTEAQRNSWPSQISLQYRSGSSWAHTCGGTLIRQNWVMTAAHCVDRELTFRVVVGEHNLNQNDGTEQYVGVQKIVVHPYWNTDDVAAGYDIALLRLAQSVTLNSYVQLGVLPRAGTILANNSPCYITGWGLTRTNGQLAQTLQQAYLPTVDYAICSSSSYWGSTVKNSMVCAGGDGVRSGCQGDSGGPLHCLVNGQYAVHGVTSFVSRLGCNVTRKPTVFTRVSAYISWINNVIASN
T2 sequence (C7FF04 1-392 limits assumed): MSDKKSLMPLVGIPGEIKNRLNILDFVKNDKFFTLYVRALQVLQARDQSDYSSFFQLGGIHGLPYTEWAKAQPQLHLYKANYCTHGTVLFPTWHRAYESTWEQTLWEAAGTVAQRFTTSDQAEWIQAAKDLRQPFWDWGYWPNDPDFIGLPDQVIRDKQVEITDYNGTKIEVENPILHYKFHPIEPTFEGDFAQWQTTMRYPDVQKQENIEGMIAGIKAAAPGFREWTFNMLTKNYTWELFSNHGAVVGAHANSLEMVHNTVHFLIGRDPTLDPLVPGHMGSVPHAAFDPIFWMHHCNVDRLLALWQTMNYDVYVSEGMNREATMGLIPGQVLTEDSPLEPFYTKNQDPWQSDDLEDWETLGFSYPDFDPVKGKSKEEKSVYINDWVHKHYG

CC(Cc1ccc(O)cc1)O[C@@H]1C[C@@H](O)[C@H](O)[C@@H](CO)O1 (stereo partly drawn) [HPP2DG, hydroxyphenyl-2-propanoyl-O-α-2″-deoxyglucoside]
IC50 [1]: 25.3 µM
IC50 [2]: 13.8 µM
maximal ROS-scavenging activity [3]: 54.3%

CC(Cc1ccc(O)cc1)O[C@H]1O[C@H](CO)[C@@H](O)[C@H](O)[C@H]1O (stereo partly drawn) [HPP2G, hydroxyphenyl-2-propanoyl-O-α-glucoside]
IC50 [1]: 22.1 µM
IC50 [2]: 14.8 µM
maximal ROS-scavenging activity [3]: 52.0%

CC(O)Cc1ccc(O)cc1 (stereo not shown) [HPP2]
IC50 [1]: 95.3 µM
IC50 [4]: 18.5 µM
IC50 [2]: 11.6 µM
fold higher tyrosinase inhibitory effect than kojic acid [2]: about 6.6 fold
inhibition of α-MSH-induced intracellular melanin biosynthesis [5]: 50.3%
kcat ([6]; donor TDP-2′dGlc): 0.2155 ± 0.0363 s⁻¹
kcat ([6]; donor UDP-Glc): 0.3235 s⁻¹ and 0.3235 ± 0.0537 s⁻¹

CCC(O[C@@H]1C[C@@H](O)[C@H](O)[C@@H](CO)O1)c1ccc(O)cc1 (stereo partly shown) [HPP3DG]
IC50 [1]: 30.7 µM
IC50 [2]: 30.9 µM
maximal ROS-scavenging activity [3]: 45.7%

CCC(O[C@H]1O[C@H](CO)[C@@H](O)[C@H](O)[C@H]1O)c1ccc(O)cc1 (stereo partly shown) [HPP3G]
IC50 [1]: 31.5 µM
IC50 [2]: 29.1 µM
maximal ROS-scavenging activity [3]: 48.9%

CCC(O)c1ccc(O)cc1 (stereo not shown) [HPP3]
IC50 [1]: 99.1 µM
IC50 [4]: 19.3 µM
IC50 [2]: 23.4 µM
fold higher tyrosinase inhibitory effect than kojic acid [2]: ~3.3 fold
inhibition of α-MSH-induced intracellular melanin biosynthesis [5]: 21.7%
kcat ([6]; donor TDP-2′dGlc): 0.1865 ± 0.0372 s⁻¹
kcat ([6]; donor UDP-Glc): 0.2812 s⁻¹ and 0.2812 ± 0.0497 s⁻¹

O=C1O[C@H]([C@@H](O)CO)C(O)=C1O [L-ascorbic acid, reference compound]
IC50 [4]: 23 µM
IC50 [7]: 22 µM

Cc1cn([C@H]2C[C@H](O)[C@@H](COP(=O)(O)OP(=O)(O)O[C@@H]3C[C@@H](O)[C@H](O)[C@@H](CO)O3)O2)c(=O)[nH]c1=O [TDP-2′dGlc, thymidine diphosphate-2′-deoxyglucose]
Km [8]: 0.5 ± 0.09 mM
Km [9]: 0.41 ± 0.07 mM

Oc1ccc(O)cc1 [hydroquinone, reference compound]
IC50 [2]: 10.3 µM

OC[C@H]1O[C@H](Oc2ccc(O)cc2)[C@H](O)[C@@H](O)[C@@H]1O [α-arbutin]
change of cell viability [10]: less than 5 % of the control
cytotoxicity for the B16F10 cells [11]: no cytotoxicity
inhibition of α-MSH-induced intracellular melanin biosynthesis [5]: about 20.3%

Reference: PMC9312196, “Enzymatic Biosynthesis of Simple Phenolic Glycosides as Potential Anti-Melanogenic Antioxidants” (Antioxidants, 2022)
